# Entries after “also recorded” stand apart in the source; their conditions may differ.
# Key:
# [1] = target: T1, CreER fusion protein (Homo sapiens, UniProt P03372, G400V/L544A/M543A); experiment: X-gal (lacZ) reporter in MEFs from Rosa26CreERT2; R26R (Lox-STOP-Lox-lacZ) embryos; format: cell-based, mouse; settings: with vs without 365 nm UV light exposure; X-gal stained MEFs
# T1 construct: host or cells: cells and tissues (MEFs, mammary epithelial acini, skin, mammary gland) of heterozygous Rosa26CreER^T2 knock-in reporter mice; the other entry of the earlier key: cre (P06956, Recombinase cre)
# T1 sequence (P03372 with tags, fused parts or gaps G400V/M543A/L544A): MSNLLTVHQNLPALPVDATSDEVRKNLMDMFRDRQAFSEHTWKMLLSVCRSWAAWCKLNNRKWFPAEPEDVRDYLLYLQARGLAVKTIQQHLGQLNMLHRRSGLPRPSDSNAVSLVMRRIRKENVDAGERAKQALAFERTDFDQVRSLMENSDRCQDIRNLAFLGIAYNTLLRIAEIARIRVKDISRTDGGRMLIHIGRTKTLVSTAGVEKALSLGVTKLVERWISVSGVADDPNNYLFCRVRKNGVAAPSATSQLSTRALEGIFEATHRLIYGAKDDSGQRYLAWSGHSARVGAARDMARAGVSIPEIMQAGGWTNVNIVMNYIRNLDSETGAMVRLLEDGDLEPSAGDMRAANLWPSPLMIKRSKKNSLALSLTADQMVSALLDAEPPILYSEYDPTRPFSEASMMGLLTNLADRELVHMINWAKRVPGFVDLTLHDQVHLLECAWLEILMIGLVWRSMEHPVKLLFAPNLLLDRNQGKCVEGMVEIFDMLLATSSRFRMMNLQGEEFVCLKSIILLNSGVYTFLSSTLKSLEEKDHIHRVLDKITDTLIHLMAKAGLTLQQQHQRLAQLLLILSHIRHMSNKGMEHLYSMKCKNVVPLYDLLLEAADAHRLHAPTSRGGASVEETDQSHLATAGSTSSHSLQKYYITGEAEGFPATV
# Method: (§1) Mouse embryonic fibroblasts (MEFs) were isolated as described (Sharpless et al., Mol. Cell 8:1187-1196, 2001) and grown in DMEM with 10% FBS. To shed UV light on the cells, the cells were first grown in 60-mm dish overnight to become nearly confluent. The next day, the medium was replaced with medium containing caged 4-OHC at 5 μM and incubated for 30 minutes. The cells were washed twice quickly with warm PBS and covered with fresh medium. The dish was placed on the UV emission surface of a handheld 6 W long-wavelength UV lamp (UVP, LLC), and UV light was kept on for a designated period of time. The cells were put back into the incubator to culture for 48-72 h before live imaging or flow cytometric analysis.
# Mouse embryonic fibroblasts (MEFs) isolated from the Rosa26CreER^T2; mT/mG mice in cell culture were used to test the caged 4-OHC activity. The Rosa26CreER^T2; mT/mG MEFs were treated with either 4-OHC or caged 4-OHC and illuminated at 365 nm. […] To further test the caged 4-OHC, another reporter mouse was generated (Rosa26CreER^T2; R26R mice). The Rosa26CreER^T2; R26R mice were generated by crossing homozygous Rosa26CreER^T2 mice with homozygous Rosa26-loxP-STOP-loxP-lacZ mice (experimental system shown in FIG. 9).
# An additional set of experiments were performed to test the ability of Caged Molecules I, II, and III (shown in Schematic #5) to induce nuclear translocation of a ER fusion protein in a cell following light exposure. Mouse embryonic fibroblasts from Rosa26-CreER^T2; Lox-STOP-Lox-lacZ embryos were treated with 5 μM 4-OHC (positive control; lower left panel), treat Caged Molecule I (“Compound I”) with or without 365 nm UV light exposure (top right and top center panels, respectively), Caged Molecule II (“Compound II”) with or without 365 nm UV light exposure (middle right and middle center panels, respectively), or Caged Molecule III (“Compound III”) with or without 365 UV light exposure (bottom right and […] panels, respectively).
# [2] = Stability of caged molecule in the absence of light; format: physicochemical; settings: in the dark / prior to illumination
# [3] = target: T2, CreER (Homo sapiens, UniProt P03372, G400V/L544A/M543A); experiment: In vivo photoactivation in skin of Rosa26CreERT2; mT/mG mice (OV-110 imaging); parameters: species or system mouse
# T2 construct: host or cells: cells and tissues (MEFs, mammary epithelial acini, skin, mammary gland) of heterozygous Rosa26CreER^T2 knock-in reporter mice; the other entry of the earlier key: cre (P06956, Recombinase cre)
# T2 sequence (P03372 with tags, fused parts or gaps G400V/M543A/L544A): T1 sequence (P03372 with tags, fused parts or gaps G400V/M543A/L544A)
# Method: (§2) Female mice of 6-8 weeks old were clean shaven on the dorsal and ventral sides. The caged 4-OHC was dissolved in 20% Solutol for in vivo delivery. The vehicle or 1 mg caged 4-OHC in vehicle was injected intraperitoneally. One hour later, the mice were anesthetized with isoflurane and exposed to UV light from the hand-held 6 W long-wavelength UV lamp (UVP, LLC) for 15 minutes. Alternatively, for mammary tissue illumination, the right inguinal (#4) mammary fat pad was exposed by creating a small skin flap and illumination with UV light for 15 minutes. For enhanced photoconversion, this procedure was repeated four times. On the seventh day, the mice were imaged with Olympus OV-110 epifluorescence imager (Thurber et al., PLoS One 4:e8053, 2009) to detect fluorescent signals emitted from the skin on the dorsal and ventral sides. Alternatively, the left and right mammary glands were dissected and immediately imaged using the intravital laser scanning microscope IV-110 (Kelly et al., PLoS Med. 5:e85, 2008).
# [4] = 4-OHC compared with 4-OHT; cited from earlier work
# [5] = UV-Vis and HPLC-MS characterization of the photocleavage of caged 4-OHC; format: physicochemical
# Method: A 0.25 mM solution of caged 4-OHC in 1:1 (v/v) water:acetonitrile was used for the UV-Vis spectroscopic characterization of the photocleavage reaction. The solution of the caged 4-OHC was placed in a 96-well black clear bottom microplate. The solution was then irradiated at ˜365 nm using a hand-held UV lamp. After light exposure, UV-Vis spectra of the solution was recorded in a TECAN microplate reader. A time course of the photocleavage reaction was monitored by exposing the caged 4-OHC solution to light for different durations, and subsequently recording the UV-Vis spectra of the solution.
# A 2.0 mM solution of caged 4-OHC in 1:1 (v/v) water: acetonitrile was used for the HPLC-MS study. The solution of the caged 4-OHC was placed in a glass vial and irradiated at ˜365 nm using a hand-held UV lamp. Aliquots were taken at different time intervals and injected to the HPLC-MS machine for analysis. Prism 5 (GraphPad, La Jolla, Calif.) for Mac was used to plot the data.
# [6] = target: T2, CreER; experiment: Photoactivated EGFP expression in MEFs from Rosa26CreERT2; mT/mG mice; format: cell-based, mouse; settings: 5 μM, 365 nm illumination vs no light
# Method: as §1
# A recently developed double-fluorescent Cre reporter mouse, the mT/mG strain (Muzumdar, Genesis 45:593, 2007) was used to design a biological system that can faithfully report on the induced activity of CreER. This mouse model expresses tdTomato prior to and EGFP following Cre-mediated recombination ubiquitously in tissues. […] The photoinduced activity of caged tamoxifen and caged tamoxifen derivative molecules can be assessed by illuminating the cells and tissues from these mice and looking for EGFP-expressed cells (FIG. 1).
# [7] = target: T2, CreER; experiment: Photoactivated EGFP expression in mammary acinus 3D culture from Rosa26CreERT2; mT/mG mice; format: cell-based, mouse; settings: 5 μM, 1 min UV lamp or 60× objective DAPI filter
# Method: Mouse mammary epithelial cells […] were isolated from 6-8 week old female Rosa26CreER^T2; mT/mG mice as previously described (Tiede et al., PLoS One 4:e8035, 2009). Briefly, mammary glands were excised, minced using scalpels, and digested for 1 hour in 300 U/mL type 1A collagenase (Sigma) and 100 U/mL hyaluronidase (Sigma). The cells were then treated with 0.25% trypsin/EDTA, dispase (Invitrogen)/DNase (Sigma), and ACK lysing buffer (Invitrogen) in succession. Between each treatment, cells were rinsed in MEGM (1:1 DMEM:F12 Ham supplemented with […], 500 ng/mL hydrocortisone, 10 ng/mL EGF, 20 ng/mL cholera toxin, 5% bovine calf serum, and 1× penicillin/streptomycin). Afterwards, cells were filtered twice through […] nylon cell strainers and seeded in 35-mm dishes that contained a layer of Growth Factor Reduced Matrigel (BD Biosciences) measuring approximately 1-2 mm thickness. Acini usually formed in 4-8 days. During photoactivation, the acini were incubated with MEGM containing 5 μM caged 4-OHC for 1 hour. The cells were washed twice quickly with warm PBS and covered with fresh medium. The dish was placed on the UV emission surface of a hand-held 6 W long-wavelength UV lamp (UVP, LLC, exposure time: 1 minute) or above the 60× objective of an inverted epifluorescent microscope equipped with a standard DAPI filter set. […]
# [8] = target: T2, CreER; experiment: In vivo photoactivation in mammary gland of female Rosa26CreERT2; mT/mG mice (ex vivo IV-110 imaging); parameters: species or system mouse
# Method: as §2
compound,measurement,setting,value
CCOC(=O)COc1c(OC)cc([N+](=O)[O-])c(COc2ccc(C(=C3CCCCC3)c3ccc(OCCN(C)C)cc3)cc2)c1[N+](=O)[O-] [Caged Molecule II],nuclear translocation / nuclear transport of the ER fusion protein,[1],resulted in an increase in the nuclear transport of the ER fusion protein
"4-hydrocyclofen conjugated with the photoactivatable 4,5-demethoxy-2-nitrophen methanol (DMNPM) group [DMNPM caged 4-hydroxycyclofen, reference compound]",breakdown in the absence of light exposure,[2],spontaneous breakdown in the absence of appropriate light exposure
CCOc1c(OC)cc([N+](=O)[O-])c(COc2ccc(C(=C3CCCCC3)c3ccc(OCCN(C)C)cc3)cc2)c1[N+](=O)[O-] [Caged Molecule I],nuclear translocation / nuclear transport of the ER fusion protein,[1],resulted in an increase in the nuclear transport of the ER fusion protein
"CN(C)CCOc1ccc(C(=C2CCCCC2)c2ccc(O)cc2)cc1 [4-OHC, 4-hydroxycyclofen, reference compound]",EGFP signal at whole mouse level,[3]; treated with 4-OHC (uncaged),strong EGFP signal was detected
same,photostability,[4],better photostability
COc1ccc(-c2ccc([N+](=O)[O-])c(C(C)COc3ccc(C(=C4CCCCC4)c4ccc(OCCN(C)C)cc4)cc3)c2)cc1 (stereo not drawn) [Caged Molecule III],nuclear translocation / nuclear transport of the ER fusion protein,[1],resulted in an increase in the nuclear transport of the ER fusion protein
"COc1cc(C(C)Oc2ccc(C(=C3CCCCC3)c3ccc(OCCN(C)C)cc3)cc2)c([N+](=O)[O-])cc1OC (stereo not drawn) [caged 4-OHC, 1-(4,5-dimethoxy-2-nitrophenyl) ethanol (DMNPE) caged 4-hydroxycyclofen]",breakdown in the absence of light exposure,[2],did not appear to show any sign of breakdown prior to illumination
same,conversion to / release of 4-OHC upon UV irradiation,"[5]; HPLC-MS, ~365 nm, 2.0 mM in water:acetonitrile 1:1","quantitative, unidirectional conversion to 4-OHC; also recorded: quantitative release of 4-OHC"
same,time to completion of photochemical (photocleavage) reaction,"[5]; hand-held 365 nm UV lamp, UV-Vis, water:acetonitrile 1:1",≤ 10 min
same,EGFP expression after photocleavage,[6],induced EGFP expression in a stringent fashion
same,EGFP expression in response to photoactivation,[7],very tight control of EGFP expression in response to photoactivation
same,EGFP signal on illuminated ventral vs non-illuminated dorsal skin,"[3]; intraperitoneal, UV illumination only on ventral skin",EGFP signal was observed on the ventral skin but not on the dorsal skin
same,average increase in fluorescence intensity,"[3]; intraperitoneal, ventral skin UV illuminated",2.5 fold
same,EGFP induction in illuminated right vs non-illuminated left mammary gland,"[8]; intraperitoneal, 365 nm light on right mammary gland, seven days later","the right, but not the left, mammary gland showed strong EGFP induction; also recorded: expressed EGFP"
same,diffusion after uncaging to other organs,[8]; skin and mammary gland data taken together,limited diffusion after uncaging
